According to patent publication US12661353B2, “SPT5 inhibitors and uses thereof” (Yeda Research and Development Co. Ltd., priority 2020, dated 2026):
“Also recorded” adds a separate entry of the source.

The compounds below were run on pro-inflammatory genes A20, CCL20, IL6, IL8, CXCL2, JUNB and IEX1 (assay: mRNA levels of pro-inflammatory genes under basal conditions, HeLa, RT-qPCR). Conditions: HeLa cells, 2 hours, 50 μM SPI.
Format: cell-based, human
Procedure: (§1) Cell culture—HEK293T, HeLa, MCF7, Jurkat and mouse embryonic fibroblasts (MEFs) cells were grown and maintained in Dulbecco's modified Eagle's medium supplemented with 10% fetal calf serum (Gibco) and 1% penicillin-streptomycin. To avoid NF-κB activity, HeLa cells were kept from reaching confluence and re-plated no more than 10 times following initial thawing. To induce NF-κB activity, cells were treated with […] recombinant human TNF-α (Peprotech) for the indicated times. STHdh Q111 and STHdh Q7 striatal cell lines (Coriell Institute for Medical Research) were grown in Dulbecco's modified Eagle's medium supplemented with 10% fetal calf serum (Gibco), 1% penicillin-streptomycin and 0.4 mg/ml G418 at 33° C. The cells were re-plated no more than 5-6 times, as recommended.
(§2) RNA analysis—Total RNA was extracted using Tri-reagent (Bio-Lab Chemicals) and Direct-Zol™ RNA MiniPrep kit (Zymo Research). Following, cDNA was synthesized from […] of total RNA using a High-Capacity cDNA Reverse Transcription Kit (ABI, Thermo Fisher Scientific). cDNA samples were analyzed by quantitative PCR (qPCR) in a ViiA 7 Real-Time PCR System using Fast qPCRBIO SYBR Green Mix (PCR Biosystems).
Thus, a subset of Spt5-responsive pro-inflammatory genes from the aforementioned studies and from others (Aida et al., 2006; Fujita et al., 2009), namely A20, CCL20, IL6, IL8, CXCL2, JUNB and IEX1, were selected and the effect of the identified SPIs on their expression under basal conditions and in response to NF-κB activation was tested (FIGS. 2A-C and 3A-C). Specifically, for analyzing expression under basal conditions, Hela cells were treated with vehicle (DMSO) or SPI for 2 hours and following RNA was extracted and analyzed by RT-qPCR.
For Down-regulating transcription of Mutant Htt (i.e. inhibiting transcription elongation of mutant Htt gene induced by Spt5) in this document: key: + represent a statistically significant effect.

Structure (SMILES) | Up-regulation of pro-inflammatory genes under basal conditions (i.e. inhibiting proximal promoter pausing of pro-inflammatory genes induced by Spt5)
O=C(O)c1ccc(C=C2CSc3c(F)cccc3C2=O)cc1 [SPI-46] | + (+ >1.6)
O=C1C(=Cc2cccc(O)c2)CSCC1=Cc1cccc(O)c1 [SPI-157] | ++ (++ >3)
CCN(CC)CCOc1ccc(C(=C(Cl)c2ccccc2)c2ccccc2)cc1 [SPI-42] | + (+ >1.6)
N#CC(C#N)=CC=C(Sc1ncc(C(F)(F)F)cc1Cl)c1ccc(Cl)cc1 [SPI-16] | ++ (++ >3)
Nc1ccc2ncnc(NCCc3ccc(Oc4ccccc4)cc3)c2c1 [SPI-74] | + (+ >1.6)
CN(Cc1cnn(Cc2ccccc2)c1)c1ccc2nnc(-c3ccccc3)n2n1 [SPI-17] | +++ (+++ represent effect >10)
O=C(O)c1ccc(C=C2CSc3ccc(F)cc3C2=O)cc1 [SPI-68] | + (+ >1.6)
O=C(/C=C/c1ccc(O)cc1)CC(=O)/C=C/c1ccc(O)cc1 [SPI-29] | ++ (++ >3)
Cn1cc(-c2ccncc2)c(-c2ccc(OCc3ccc4ccccc4n3)cc2)n1 [SPI-95] | + (+ >1.6)
Cc1ccnc(SC=CC(=O)c2ccccc2)n1 [SPI-57] | + (+ >1.6)

These compounds were tested on pro-inflammatory genes A20, CCL20, IL6, IL8, CXCL2, JUNB and IEX1 (assay: mRNA levels of pro-inflammatory genes under TNFα-induced conditions, HeLa, RT-qPCR). Conditions: HeLa cells, SPI 1 hour then TNFα 1 hour.
Format: cell-based, human
Procedure: as §1, §2
In the next step, the effect of the identified SPIs on expression of the selected genes following NF-κB activation was analyzed. Specifically, Hela cells were pre-incubated with DMSO or SPI (50 μM or less) for 1 hour followed by treatment with TNFα for an additional 1 hour.

Structure (SMILES) | Down-regulating transcription of pro-inflammatory genes under TNFα induced conditions (i.e. inhibiting transcription elongation of pro-inflammatory genes induced by Spt5)
O=C(O)c1ccc(C=C2CSc3c(F)cccc3C2=O)cc1 [SPI-46] | +++ (+++ represent >80% inhibition)
O=C1C(=Cc2cccc(O)c2)CSCC1=Cc1cccc(O)c1 [SPI-157] | +++ (+++ represent >80% inhibition)
CCN(CC)CCOc1ccc(C(=C(Cl)c2ccccc2)c2ccccc2)cc1 [SPI-42] | ++ (++ >65%)
N#CC(C#N)=CC=C(Sc1ncc(C(F)(F)F)cc1Cl)c1ccc(Cl)cc1 [SPI-16] | +++ (+++ represent >80% inhibition)
Nc1ccc2ncnc(NCCc3ccc(Oc4ccccc4)cc3)c2c1 [SPI-74] | ++ (++ >65%)
CN(Cc1cnn(Cc2ccccc2)c1)c1ccc2nnc(-c3ccccc3)n2n1 [SPI-17] | +++ (+++ represent >80% inhibition)
O=C(O)c1ccc(C=C2CSc3ccc(F)cc3C2=O)cc1 [SPI-68] | ++ (++ >65%)
O=C(/C=C/c1ccc(O)cc1)CC(=O)/C=C/c1ccc(O)cc1 [SPI-29] | +++ (+++ represent >80% inhibition)
Cn1cc(-c2ccncc2)c(-c2ccc(OCc3ccc4ccccc4n3)cc2)n1 [SPI-95] | ++ (++ >65%)
Cc1ccnc(SC=CC(=O)c2ccccc2)n1 [SPI-57] | +++ (+++ represent >80% inhibition)
CCc1ccccc1NS(=O)(=O)c1ccc(-n2ncc(Cl)c(Cl)c2=O)cc1 [SPI-31] | +++ (+++ represent >80% inhibition)

Same assay, conditions: HeLa, SPI (50 μM or less) 1 hour then TNFα 1 hour

Structure (SMILES) | effect on TNFα-induced levels of pro-inflammatory genes, in words
CCN(CC)CCOc1ccc(C(=C(Cl)c2ccccc2)c2ccccc2)cc1 [SPI-42] | affected mainly the genes that were strongly induced by the TNFα treatment
Nc1ccc2ncnc(NCCc3ccc(Oc4ccccc4)cc3)c2c1 [SPI-74] | affected mainly the genes that were strongly induced by the TNFα treatment
O=C(O)c1ccc(C=C2CSc3ccc(F)cc3C2=O)cc1 [SPI-68] | affected mainly the genes that were strongly induced by the TNFα treatment
Cn1cc(-c2ccncc2)c(-c2ccc(OCc3ccc4ccccc4n3)cc2)n1 [SPI-95] | affected mainly the genes that were strongly induced by the TNFα treatment

The compounds below were run on mutant (Q111) Htt (assay: Htt mRNA levels in Q111 striatal cells, qPCR). Conditions: not given.
Format: cell-based, mouse
Procedure: as §1
Huntington's disease (HD) is an inherited genetic disorder caused by expansion trinucleotide CAG repeats (36 and higher) encoding glutamine (Q) in the huntingtin (Htt) gene. Expression of the mutant gene in neurons of the striatum and the frontal cortex leads to degeneration of neuronal cells that control body movements, emotions and intellect. […] To examine the potential effect of SPIs in this context, striatal cell lines established from wild type (Q7) or from mutant (Q111) Htt knock-in mice were used. In these cell lines the coding region of the first exon of the mouse Htt gene was replaced with the same region of human wild type (Q7) or mutant (Q111) Htt, as schematically shown in FIG. 6A. The two cell lines were treated for 48 hours with the identified SPIs and following the levels of Htt mRNA were determined.
The compounds were tested as described in Example 4 hereinabove. In brief, Q111 (or Q7, where indicated) expressing Striatal cells were treated with the tested compound at the indicated concentrations for 48 hours. Then, RNA was extracted and levels of Htt mRNA were determined by qRT-PCR and normalized to β-actin. The data was analysed using GraphPad Prism software.

Structure (SMILES) | effective concentration on mutant Htt lower than the concentration needed to inhibit expression of the pro-inflammatory genes
CCc1ccccc1NS(=O)(=O)c1ccc(-n2ncc(Cl)c(Cl)c2=O)cc1 [SPI-31] | about 15 fold

Same assay, conditions: 48 hours

Structure (SMILES) | effect on mutant (Q111) Htt mRNA expression, in words
O=C(O)c1ccc(C=C2CSc3c(F)cccc3C2=O)cc1 [SPI-46] | did not affect mutant Htt expression
O=C1C(=Cc2cccc(O)c2)CSCC1=Cc1cccc(O)c1 [SPI-157] | did not affect mutant Htt expression
CCN(CC)CCOc1ccc(C(=C(Cl)c2ccccc2)c2ccccc2)cc1 [SPI-42] | did not affect mutant Htt expression
N#CC(C#N)=CC=C(Sc1ncc(C(F)(F)F)cc1Cl)c1ccc(Cl)cc1 [SPI-16] | did not affect mutant Htt expression
CN(C)c1ccc(C2NCC(CSc3nc4ccccc4s3)O2)cc1 (centres unmarked) [SPI-85] | diminished mutant Htt expression
COc1ccc(C2=NCC(CSc3nc4cc(Cl)ccc4o3)S2)cc1 (centres unmarked) [SPI-0324] | efficacy in selectively inhibiting transcription of Htt gene
CN(Cc1cnn(Cc2ccccc2)c1)c1ccc2nnc(-c3ccccc3)n2n1 [SPI-17] | did not affect mutant Htt expression
CCc1ccccc1NS(=O)(=O)c1ccc(-n2ncccc2=O)cc1 [SPI-4516K, N-(2-ethylphenyl)-4-(6-oxopyridazin-1(6H)-yl)benzenesulfonamide] | efficacy in selectively inhibiting transcription of Htt gene
OCc1ccc(-c2ccc(-c3cccs3)s2)s1 [SPI-8108] | efficacy in selectively inhibiting transcription of Htt gene
O=c1oc2cc(O)ccc2s1 [SPI-09] | diminished mutant Htt expression
Cn1cc(-c2ccncc2)c(-c2ccc(OCc3ccc4ccccc4n3)cc2)n1 [SPI-95] | did not affect mutant Htt expression
CSc1ccccc1NS(=O)(=O)c1ccc(-n2ncc(Cl)c(Cl)c2=O)cc1 [SPI-1477] | efficacy in selectively inhibiting transcription of Htt gene
Cc1ccnc(SC=CC(=O)c2ccccc2)n1 [SPI-57] | did not affect mutant Htt expression
CCc1ccccc1NS(=O)(=O)c1ccc(-n2ncc(Cl)c(Cl)c2=O)cc1 [SPI-31] | efficacy in selectively inhibiting transcription of Htt gene

Same assay, conditions: Q111 striatal cells, 48 hours

Structure (SMILES) | Down-regulating transcription of Mutant Htt (i.e. inhibiting transcription elongation of mutant Htt gene induced by Spt5)
OCc1ccc(-c2ccc(-c3ccc(CO)s3)o2)s1 [SPI-48] | +
CN(C)c1ccc(C2NCC(CSc3nc4ccccc4s3)O2)cc1 (centres unmarked) [SPI-85] | +
Nc1ccc2ncnc(NCCc3ccc(Oc4ccccc4)cc3)c2c1 [SPI-74] | +
O=C(O)c1ccc(C=C2CSc3ccc(F)cc3C2=O)cc1 [SPI-68] | +
O=C(/C=C/c1ccc(O)cc1)CC(=O)/C=C/c1ccc(O)cc1 [SPI-29] | +
O=c1oc2cc(O)ccc2s1 [SPI-09] | +
CCc1ccccc1NS(=O)(=O)c1ccc(-n2ncc(Cl)c(Cl)c2=O)cc1 [SPI-31] | +

What follows are compounds tested on Spt5 activities (assay: Combined effects on the various Spt5 activities (summary of Examples 1-4)). Conditions: not given.
Format: cell-based

Structure (SMILES) | classification by effect on the various Spt5 activities, in words
O=C(O)c1ccc(C=C2CSc3c(F)cccc3C2=O)cc1 [SPI-46] | affected the basal and the TNFα-induced pro-inflammatory gene transcription
O=C1C(=Cc2cccc(O)c2)CSCC1=Cc1cccc(O)c1 [SPI-157] | affected the basal and the TNFα-induced pro-inflammatory gene transcription
OCc1ccc(-c2ccc(-c3ccc(CO)s3)o2)s1 [SPI-48] | a single activity as SPI inhibitors towards inhibiting transcription of Htt gene
CCN(CC)CCOc1ccc(C(=C(Cl)c2ccccc2)c2ccccc2)cc1 [SPI-42] | affected the basal and the TNFα-induced pro-inflammatory gene transcription
N#CC(C#N)=CC=C(Sc1ncc(C(F)(F)F)cc1Cl)c1ccc(Cl)cc1 [SPI-16] | affected the basal and the TNFα-induced pro-inflammatory gene transcription
CN(C)c1ccc(C2NCC(CSc3nc4ccccc4s3)O2)cc1 (centres unmarked) [SPI-85] | little or no effect on basal and induced pro-inflammatory gene expression
Nc1ccc2ncnc(NCCc3ccc(Oc4ccccc4)cc3)c2c1 [SPI-74] | affect all the tested Spt5 activities
CN(Cc1cnn(Cc2ccccc2)c1)c1ccc2nnc(-c3ccccc3)n2n1 [SPI-17] | affected the basal and the TNFα-induced pro-inflammatory gene transcription
O=C(/C=C/c1ccc(O)cc1)CC(=O)/C=C/c1ccc(O)cc1 [SPI-29] | affect all the tested Spt5 activities
O=c1oc2cc(O)ccc2s1 [SPI-09] | little or no effect on basal and induced pro-inflammatory gene expression
Cn1cc(-c2ccncc2)c(-c2ccc(OCc3ccc4ccccc4n3)cc2)n1 [SPI-95] | affected the basal and the TNFα-induced pro-inflammatory gene transcription
Cc1ccnc(SC=CC(=O)c2ccccc2)n1 [SPI-57] | affected the basal and the TNFα-induced pro-inflammatory gene transcription
CCc1ccccc1NS(=O)(=O)c1ccc(-n2ncc(Cl)c(Cl)c2=O)cc1 [SPI-31] | inhibited mainly the positive activity of Spt5 with little or no effect on proximal promoter pausing; also recorded: a single activity as SPI inhibitors towards inhibiting transcription of Htt gene

Same assay, conditions: listed as SPJ-09

Structure (SMILES) | classification by effect on the various Spt5 activities, in words
O=c1oc2cc(O)ccc2s1 [SPI-09] | a single activity as SPI inhibitors towards inhibiting transcription of Htt gene

Same assay, conditions: listed as SPJ-85

Structure (SMILES) | classification by effect on the various Spt5 activities, in words
CN(C)c1ccc(C2NCC(CSc3nc4ccccc4s3)O2)cc1 (centres unmarked) [SPI-85] | a single activity as SPI inhibitors towards inhibiting transcription of Htt gene
